Experimental data from the supplement of paper PMC10307832.

Legend:
Test in all cases: relative viability (nuclei count vs DMSO), 5 days (fraction); higher = more cells survive
[1] = tested on: NCI-H1793
How it was run: (§1)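 One day after seeding in 1536-well plates, lung cancer cell lines were dosed by pin tool. Dosing was either single-drug or a fixed anchor-drug dose plus five library-drug doses (not always all listed) in √10 steps. After 5 days, nuclei were stained in one fix-and-stain step and counted on 4× images, and relative viability is the nuclei count of treated wells over that of vehicle wells, given as the median of duplicate plates.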

[2] = tested on: NCI-H1792
How it was run: as §1

[3] = tested on: A-427
How it was run: as §1

[4] = tested on: SK-MES-1
How it was run: as §1

[5] = tested on: HCC-44
How it was run: as §1

[6] = tested on: NCI-H1944
How it was run: as §1

[7] = tested on: NCI-H358
How it was run: as §1

[8] = tested on: NCI-H1975
How it was run: as §1

[9] = tested on: NCI-H522
How it was run: as §1

[10] = tested on: LXF-289
How it was run: as §1

[11] = tested on: H3255
How it was run: as §1

[12] = tested on: NCI-H1915
How it was run: as §1

[13] = tested on: NCI-H1993
How it was run: as §1

[14] = tested on: LOU-NH91
How it was run: as §1

[15] = tested on: COR-L 105
How it was run: as §1

[16] = tested on: NCI-H2170
How it was run: as §1

[17] = tested on: SW 900
How it was run: as §1

[18] = tested on: NCI-H520
How it was run: as §1

[19] = tested on: HCC-827
How it was run: as §1

[20] = tested on: NCI-H2087
How it was run: as §1

[21] = tested on: NCI-H2023
How it was run: as §1

[22] = tested on: LCLC-103H
How it was run: as §1

[23] = tested on: SW 1573
How it was run: as §1

Which relative viability ([1]; first compound 0.2 µM) does the source give for `Cc1csc(=NC2CCCCC2)n1/N=C/c1ccc(O)c(O)c1O` [MIM1] + CCNC(=O)c1noc(-c2cc(C(C)C)c(O)cc2O)c1-c1ccc(CN2CCOCC2)cc1 [Luminespib] (partner 0.01 µM) here?
The relative viability was 0.187.

What about the relative viability ([1]; first compound 2 µM) of the same molecule?
Its relative viability is 0.188.

What about the relative viability ([1]; first compound 6.325 µM) of the same molecule?
The relative viability was 0.162.

And the relative viability ([1]; first compound 20 µM)?
Its relative viability is 0.138.

What about the relative viability ([2]; first compound 0.2 µM) of the same molecule?
Its relative viability is 0.449.

And the relative viability ([2]; first compound 0.6325 µM)?
The relative viability was 0.43.

And the relative viability ([2]; first compound 2 µM)?
The relative viability was 0.5.

And the relative viability ([2]; first compound 6.325 µM)?
The relative viability was 0.398.

What about the relative viability ([2]; first compound 20 µM) of the same molecule?
Its relative viability is 0.396.

And the relative viability ([3]; first compound 0.2 µM)?
The relative viability was 0.832.

What about the relative viability ([3]; first compound 0.6325 µM) of the same molecule?
The relative viability was 1.06.

What about the relative viability ([3]; first compound 2 µM) of the same molecule?
The relative viability was 0.955.

And the relative viability ([3]; first compound 6.325 µM)?
The relative viability was 0.747.

And the relative viability ([3]; first compound 20 µM)?
Its relative viability is 0.267.

And the relative viability ([4]; first compound 0.2 µM)?
Its relative viability is 0.754.

What about the relative viability ([4]; first compound 0.6325 µM) of the same molecule?
The relative viability was 0.828.

What about the relative viability ([4]; first compound 2 µM) of the same molecule?
The relative viability was 0.708.

What about the relative viability ([4]; first compound 6.325 µM) of the same molecule?
The relative viability was 0.55.

What about the relative viability ([4]; first compound 20 µM) of the same molecule?
Its relative viability is 0.215.

And the relative viability ([5]; first compound 0.2 µM)?
The relative viability was 0.952.

What about the relative viability ([5]; first compound 0.6325 µM) of the same molecule?
Its relative viability is 1.04.

And the relative viability ([5]; first compound 2 µM)?
The relative viability was 0.433.

And the relative viability ([5]; first compound 6.325 µM)?
Its relative viability is 0.735.

And the relative viability ([5]; first compound 20 µM)?
The relative viability was 0.228.

What about the relative viability ([6]; first compound 0.2 µM) of the same molecule?
Its relative viability is 0.632.

What about the relative viability ([6]; first compound 0.6325 µM) of the same molecule?
Its relative viability is 0.823.

What about the relative viability ([6]; first compound 2 µM) of the same molecule?
Its relative viability is 0.466.

And the relative viability ([6]; first compound 6.325 µM)?
The relative viability was 0.517.

What about the relative viability ([6]; first compound 20 µM) of the same molecule?
The relative viability was 0.568.

What about the relative viability ([7]; first compound 0.2 µM) of the same molecule?
The relative viability was 0.472.

And the relative viability ([7]; first compound 0.6325 µM)?
Its relative viability is 0.292.

What about the relative viability ([7]; first compound 2 µM) of the same molecule?
The relative viability was 0.303.

And the relative viability ([7]; first compound 6.325 µM)?
The relative viability was 0.204.

What about the relative viability ([7]; first compound 20 µM) of the same molecule?
Its relative viability is 0.211.

And the relative viability ([8]; first compound 0.2 µM)?
The relative viability was 0.202.

What about the relative viability ([8]; first compound 0.6325 µM) of the same molecule?
Its relative viability is 0.261.

And the relative viability ([8]; first compound 2 µM)?
The relative viability was 0.193.

And the relative viability ([8]; first compound 6.325 µM)?
The relative viability was 0.279.

And the relative viability ([8]; first compound 20 µM)?
The relative viability was 0.136.

What about the relative viability ([9]; first compound 0.2 µM) of the same molecule?
Its relative viability is 1.23.

And the relative viability ([9]; first compound 0.6325 µM)?
Its relative viability is 1.05.

And the relative viability ([9]; first compound 2 µM)?
Its relative viability is 1.03.

And the relative viability ([9]; first compound 6.325 µM)?
The relative viability was 1.19.

What about the relative viability ([9]; first compound 20 µM) of the same molecule?
Its relative viability is 0.494.

What about the relative viability ([10]; first compound 0.2 µM) of the same molecule?
The relative viability was 0.708.

And the relative viability ([10]; first compound 0.6325 µM)?
The relative viability was 0.649.

And the relative viability ([10]; first compound 2 µM)?
The relative viability was 0.659.

What about the relative viability ([10]; first compound 6.325 µM) of the same molecule?
The relative viability was 0.54.

And the relative viability ([10]; first compound 20 µM)?
The relative viability was 0.453.

What about the relative viability ([11]; first compound 0.2 µM) of the same molecule?
The relative viability was 0.865.

And the relative viability ([11]; first compound 0.6325 µM)?
Its relative viability is 0.85.

And the relative viability ([11]; first compound 2 µM)?
Its relative viability is 0.798.

What about the relative viability ([11]; first compound 6.325 µM) of the same molecule?
Its relative viability is 0.769.

What about the relative viability ([11]; first compound 20 µM) of the same molecule?
The relative viability was 0.34.

What about the relative viability ([12]; first compound 0.2 µM) of the same molecule?
The relative viability was 0.743.

What about the relative viability ([12]; first compound 0.6325 µM) of the same molecule?
The relative viability was 0.641.

And the relative viability ([12]; first compound 2 µM)?
The relative viability was 0.685.

What about the relative viability ([12]; first compound 6.325 µM) of the same molecule?
The relative viability was 0.579.

And the relative viability ([12]; first compound 20 µM)?
The relative viability was 0.183.

What about the relative viability ([13]; first compound 0.2 µM) of the same molecule?
Its relative viability is 0.441.

What about the relative viability ([13]; first compound 0.6325 µM) of the same molecule?
The relative viability was 0.663.

And the relative viability ([13]; first compound 2 µM)?
The relative viability was 0.652.

And the relative viability ([13]; first compound 6.325 µM)?
The relative viability was 0.633.

What about the relative viability ([13]; first compound 20 µM) of the same molecule?
The relative viability was 0.499.

And the relative viability ([14]; first compound 0.2 µM)?
The relative viability was 0.338.

What about the relative viability ([14]; first compound 0.6325 µM) of the same molecule?
The relative viability was 0.338.

And the relative viability ([14]; first compound 2 µM)?
Its relative viability is 0.32.

And the relative viability ([14]; first compound 6.325 µM)?
The relative viability was 0.271.

And the relative viability ([14]; first compound 20 µM)?
Its relative viability is 0.268.

What about the relative viability ([15]; first compound 0.2 µM) of the same molecule?
Its relative viability is 0.721.

And the relative viability ([15]; first compound 0.6325 µM)?
Its relative viability is 0.918.

What about the relative viability ([15]; first compound 2 µM) of the same molecule?
The relative viability was 0.813.

What about the relative viability ([15]; first compound 6.325 µM) of the same molecule?
Its relative viability is 0.642.

And the relative viability ([15]; first compound 20 µM)?
Its relative viability is 0.801.

What about the relative viability ([16]; first compound 0.2 µM) of the same molecule?
The relative viability was 0.707.

What about the relative viability ([16]; first compound 0.6325 µM) of the same molecule?
Its relative viability is 0.497.

And the relative viability ([16]; first compound 2 µM)?
Its relative viability is 0.729.

What about the relative viability ([16]; first compound 6.325 µM) of the same molecule?
The relative viability was 0.473.

What about the relative viability ([16]; first compound 20 µM) of the same molecule?
The relative viability was 0.434.

And the relative viability ([17]; first compound 0.2 µM)?
Its relative viability is 0.174.

What about the relative viability ([17]; first compound 0.6325 µM) of the same molecule?
Its relative viability is 0.199.

What about the relative viability ([17]; first compound 2 µM) of the same molecule?
Its relative viability is 0.19.

What about the relative viability ([17]; first compound 6.325 µM) of the same molecule?
The relative viability was 0.185.

And the relative viability ([17]; first compound 20 µM)?
The relative viability was 0.2.

And the relative viability ([18]; first compound 0.2 µM)?
The relative viability was 0.208.

What about the relative viability ([18]; first compound 0.6325 µM) of the same molecule?
Its relative viability is 0.259.

And the relative viability ([18]; first compound 2 µM)?
Its relative viability is 0.178.

And the relative viability ([18]; first compound 6.325 µM)?
The relative viability was 0.274.

And the relative viability ([18]; first compound 20 µM)?
Its relative viability is 0.257.

What about the relative viability ([19]; first compound 0.2 µM) of the same molecule?
Its relative viability is 0.517.

And the relative viability ([19]; first compound 0.6325 µM)?
The relative viability was 0.384.

What about the relative viability ([19]; first compound 2 µM) of the same molecule?
Its relative viability is 0.698.

What about the relative viability ([19]; first compound 6.325 µM) of the same molecule?
Its relative viability is 0.371.

What about the relative viability ([19]; first compound 20 µM) of the same molecule?
The relative viability was 0.184.

What about the relative viability ([20]; first compound 0.2 µM) of the same molecule?
The relative viability was 0.145.

What about the relative viability ([20]; first compound 0.6325 µM) of the same molecule?
The relative viability was 0.183.

And the relative viability ([20]; first compound 2 µM)?
The relative viability was 0.199.

What about the relative viability ([20]; first compound 6.325 µM) of the same molecule?
Its relative viability is 0.176.

And the relative viability ([20]; first compound 20 µM)?
The relative viability was 0.132.

What about the relative viability ([21]; first compound 0.2 µM) of the same molecule?
The relative viability was 0.791.

What about the relative viability ([21]; first compound 0.6325 µM) of the same molecule?
The relative viability was 0.691.

And the relative viability ([21]; first compound 2 µM)?
Its relative viability is 0.646.

And the relative viability ([21]; first compound 6.325 µM)?
Its relative viability is 0.388.

And the relative viability ([21]; first compound 20 µM)?
Its relative viability is 0.07.

And the relative viability ([22]; first compound 0.2 µM)?
The relative viability was 1.03.

And the relative viability ([22]; first compound 0.6325 µM)?
The relative viability was 0.908.

What about the relative viability ([22]; first compound 2 µM) of the same molecule?
Its relative viability is 0.908.

What about the relative viability ([22]; first compound 6.325 µM) of the same molecule?
The relative viability was 0.632.

What about the relative viability ([22]; first compound 20 µM) of the same molecule?
The relative viability was 0.419.

And the relative viability ([23]; first compound 0.2 µM)?
The relative viability was 0.22.

And the relative viability ([23]; first compound 0.6325 µM)?
Its relative viability is 0.318.

What about the relative viability ([23]; first compound 2 µM) of the same molecule?
The relative viability was 0.194.

What about the relative viability ([23]; first compound 6.325 µM) of the same molecule?
The relative viability was 0.143.

And the relative viability ([23]; first compound 20 µM)?
Its relative viability is 0.069.
